Laboratory results as given in patent US12233161B1, “Lipids and lipid nanoparticle formulations” (LONGUIDE BIOPHARMA CORPORATION, priority 2024, dated 2025).
Values belong to the molecule of their own block, whether it stands above or below them.

Columns and labels:
[1] = Particle size and PDI of nucleic acid lipid nanoparticle preparations by dynamic light scattering; format: physicochemical
Procedure: The 7.5 μL nucleic acid lipid nanoparticle solution (containing approximately 0.04 mg/mL mRNA) was taken and added with 200 μL ultrapure water, mixed by gentle blowing using a pipette tip, and the particle size of the nanopreparation was detected by dynamic lightscattering (DLS) using a Malvern Dynamic Light Scattering Instrument (Malvern Instruments Ltd., ZEN3700, UK).
27.5 μL nucleic acid lipid nanoparticle solution (containing about 0.04 mg/mL mRNA) was taken and added with 200 μL ultrapure water. A pipette tip was used to gently blow the sample and mix well. The particle size of the nanopreparation was detected by Malvern Dynamic Light Scattering Instrument (Malvern Instruments Ltd., ZEN3700, UK). After the detection, the sample was recovered to an EP tube, and 600 μL of ultrapure water was added, gently blown with a pipette tip, and the potential of the nanopreparation was measured by a Malvern particle size meter.

mice = assay: In vivo delivery of FLuc-mRNA lipid nanoparticles in mice, in vivo imaging (IVIS)
How it was run: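 Mice (n=3) received about 75 μL FLuc-mRNA LNP per mouse intramuscularly (rectus femoris), intravenously (tail vein), intraperitoneally or subcutaneously (back). After injection, D-luciferin (200 μL, 15 mg/mL) was given i.p. 10-15 min before IVIS imaging.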

[2] = DMG-PEG2000:DSPC:Chol:Lipid 1.09:8.66:30.25:60.00, N/P 13.3, mRNA LNP
[3] = DMG-PEG2000:DSPC:Chol:Lipid 1.40:11.15:38.95:48.50, N/P 13.3, mRNA LNP
[4] = DMG-PEG2000:DSPC:Chol:Lipid 1.00:11.50:22.50:65.00, N/P 45, mRNA LNP
[5] = DMG-PEG2000:DSPC:Chol:Lipid 1.00:16.00:48.00:35.00, N/P 30, mRNA LNP
[6] = DMG-PEG2000:DSPC:Chol:Lipid 1.40:11.15:38.95:48.50, N/P 45, mRNA LNP
[7] = DMG-PEG2000:DSPC:Chol:Lipid 1.00:11.50:22.50:65.00, N/P 45, IV, liver
[8] = DMG-PEG2000:DSPC:Chol:Lipid 1.00:11.50:22.50:65.00, N/P 45, IV, lung
[9] = DMG-PEG2000:DSPC:Chol:Lipid 1.00:11.50:22.50:65.00, N/P 45, IV, spleen
[10] = DMG-PEG2000:DSPC:Chol:Lipid 1.00:16.00:48.00:35.00, N/P 30, IV, liver
[11] = DMG-PEG2000:DSPC:Chol:Lipid 1.00:16.00:48.00:35.00, N/P 30, IV, lung
[12] = DMG-PEG2000:DSPC:Chol:Lipid 1.00:16.00:48.00:35.00, N/P 30, IV, spleen
[13] = DMG-PEG2000:DSPC:Chol:compound 1.40:11.15:38.95:48.50, N/P 20
[14] = DMG-PEG2000:DSPC:Chol:compound 1.40:11.15:38.95:48.50, N/P 30
[15] = IM, DMG-PEG2000:DSPC:Chol:compound 1.40:11.15:38.95:48.50, N/P 30, Fluc-mRNA

PDI [1, 13]: 0.10
Particle size (nm) [1, 13]: 132.67 nm
Compound: CCCCCCCCCCCCNC(=O)C(O)CN(CCCCCCCN(CC(O)C(=O)NCCCCCCCCCCCC)CC(O)C(=O)NCCCCCCCCCCCC)CC(O)C(=O)NCCCCCCCCCCCC (stereo not shown) [Compound L0308]
IVIS (mice; IM, DMG-PEG2000:DSPC:Chol:compound 1.40:11.15:38.95:48.50, N/P 20, Fluc-mRNA): 9.07E+05
IVIS (mice; IV, organ not given, DMG-PEG2000:DSPC:Chol:compound 1.40:11.15:38.95:48.50, N/P 20, Fluc-mRNA): 1.99E+05

PDI [1, 14]: 0.09
Particle size (nm) [1, 14]: 130.70 nm
Compound: CCCCCCOC(C)OCCCCCCOC(=O)C(O)CN(CCN(C)CCN(CC(O)C(=O)OCCCCCCOC(C)OCCCCCC)CC(O)C(=O)OCCCCCCOC(C)OCCCCCC)CC(O)C(=O)OCCCCCCOC(C)OCCCCCC (stereo not shown) [Compound L0333]
IVIS (mice; [15]): 1.70E+06
IVIS (mice; IV, body, DMG-PEG2000:DSPC:Chol:compound 1.40:11.15:38.95:48.50, N/P 30, Fluc-mRNA): 6.44E+08
% of organ targeting (mice; IV, liver, DMG-PEG2000:DSPC:Chol:compound 1.40:11.15:38.95:48.50, N/P 30): 74.80%
IVIS (mice; IV, liver, DMG-PEG2000:DSPC:Chol:compound 1.40:11.15:38.95:48.50, N/P 30, Fluc-mRNA): 1.29E+08
% of organ targeting (mice; IV, lung, DMG-PEG2000:DSPC:Chol:compound 1.40:11.15:38.95:48.50, N/P 30): 4.15%
IVIS (mice; IV, lung, DMG-PEG2000:DSPC:Chol:compound 1.40:11.15:38.95:48.50, N/P 30, Fluc-mRNA): 7.15E+06
% of organ targeting (mice; IV, spleen, DMG-PEG2000:DSPC:Chol:compound 1.40:11.15:38.95:48.50, N/P 30): 21.05%
IVIS (mice; IV, spleen, DMG-PEG2000:DSPC:Chol:compound 1.40:11.15:38.95:48.50, N/P 30, Fluc-mRNA): 3.63E+07

PDI [1, 14]: 0.18
Particle size (nm) [1, 14]: 108.57 nm
Compound: CCCCCCCCCCNC(=O)C(O)CN(C)CCCN(C)CCCN(C)CC(O)C(=O)NCCCCCCCCCC (stereo not shown) [Compound L0327]
IVIS (mice; [15]): 4.85E+05
IVIS (mice; IV, organ not given, DMG-PEG2000:DSPC:Chol:compound 1.40:11.15:38.95:48.50, N/P 30, Fluc-mRNA): 2.98E+05

More lines, now with the values behind:

Compound: CCCCCCOCOCCCCCCOC(=O)C(O)CN(CCCN(C)CCCN(CC(O)C(=O)OCCCCCCOCOCCCCCC)CC(O)C(=O)OCCCCCCOCOCCCCCC)CC(O)C(=O)OCCCCCCOCOCCCCCC (stereo not shown) [Compound L0271]
PDI [1, 2]: 0.06 ± 0.01
Particle size [1, 2]: 145.73 ± 2.21 nm
PDI [1, 3]: 0.04 ± 0.03
Particle size [1, 3]: 124.63 ± 0.70 nm
IVIS (mice; DMG-PEG2000:DSPC:Chol:Lipid 1.09:8.66:30.25:60.00, N/P 13.3, IM, whole body scan): 3.27 × 10^6
IVIS (mice; DMG-PEG2000:DSPC:Chol:Lipid 1.40:11.15:38.95:48.50, N/P 13.3, IV, whole body scan): 4.16 × 10^8

Compound: CCCCCCCCCCCCOC(=O)C(O)CN(CCCN(CC(O)C(=O)OCCCCCCCCCCCC)CC(O)C(=O)OCCCCCCCCCCCC)CCCN(CC(O)C(=O)OCCCCCCCCCCCC)CC(O)C(=O)OCCCCCCCCCCCC (stereo not shown) [Compound L0269]
PDI [1, 4]: 0.06 ± 0.01
Particle size [1, 4]: 128.20 ± 0.89 nm
PDI [1, 5]: 0.11 ± 0.01
Particle size [1, 5]: 125.17 ± 1.03 nm
PDI [1, 6]: 0.10 ± 0.01
Particle size [1, 6]: 142.10 ± 0.78 nm
IVIS (mice; DMG-PEG2000:DSPC:Chol:Lipid 1.00:11.50:22.50:65.00, N/P 45, IV, body): 9.49 × 10^8
% of organ targeting (mice; [7]): 69.52%
IVIS (mice; [7]): 2.05 × 10^8
% of organ targeting (mice; [8]): 0.64%
IVIS (mice; [8]): 1.88 × 10^6
% of organ targeting (mice; [9]): 29.84%
IVIS (mice; [9]): 8.80 × 10^7
IVIS (mice; DMG-PEG2000:DSPC:Chol:Lipid 1.00:16.00:48.00:35.00, N/P 30, IV, body): 5.46 × 10^8
% of organ targeting (mice; [10]): 28.77%
IVIS (mice; [10]): 7.87 × 10^7
% of organ targeting (mice; [11]): 0.33%
IVIS (mice; [11]): 8.92 × 10^5
% of organ targeting (mice; [12]): 70.91%
IVIS (mice; [12]): 1.94 × 10^8
IVIS (mice; DMG-PEG2000:DSPC:Chol:Lipid 1.40:11.15:38.95:48.50, N/P 45, IM, whole body scan): 3.83 × 10^7
in vivo delivery efficiency as compared to the benchmark compound SM102 (mice; certain formulations, Table 2): superior in vivo delivery efficiency
